Data from patent publication USRE50642E1, “Anti-androgens for the treatment of non-metastatic castrate-resistant prostate cancer” (Aragon Pharmaceuticals, Inc., priority 2012, dated 2025).

Legend:
[1] = system: male humans with non-metastatic castration-resistant prostate cancer; assay: Phase II clinical trial in non-metastatic castration-resistant prostate cancer, PSA decline from baseline; type: in vivo, human; settings: 240 mg orally, continuous daily dosing schedule
[2] = system: non-castrate hormone-sensitive and bicalutamide-resistant human prostate cancer xenograft models; settings: non-castrate hormone-sensitive and bicalutamide-resistant xenografts; Clegg et al. Cancer Res 2012; cited from earlier work
[3] = molecular target: T1, T877A AR mutant (Homo sapiens, UniProt P10275, T878A); settings: cited from earlier work
T1 sequence (P10275 1-920 T878A): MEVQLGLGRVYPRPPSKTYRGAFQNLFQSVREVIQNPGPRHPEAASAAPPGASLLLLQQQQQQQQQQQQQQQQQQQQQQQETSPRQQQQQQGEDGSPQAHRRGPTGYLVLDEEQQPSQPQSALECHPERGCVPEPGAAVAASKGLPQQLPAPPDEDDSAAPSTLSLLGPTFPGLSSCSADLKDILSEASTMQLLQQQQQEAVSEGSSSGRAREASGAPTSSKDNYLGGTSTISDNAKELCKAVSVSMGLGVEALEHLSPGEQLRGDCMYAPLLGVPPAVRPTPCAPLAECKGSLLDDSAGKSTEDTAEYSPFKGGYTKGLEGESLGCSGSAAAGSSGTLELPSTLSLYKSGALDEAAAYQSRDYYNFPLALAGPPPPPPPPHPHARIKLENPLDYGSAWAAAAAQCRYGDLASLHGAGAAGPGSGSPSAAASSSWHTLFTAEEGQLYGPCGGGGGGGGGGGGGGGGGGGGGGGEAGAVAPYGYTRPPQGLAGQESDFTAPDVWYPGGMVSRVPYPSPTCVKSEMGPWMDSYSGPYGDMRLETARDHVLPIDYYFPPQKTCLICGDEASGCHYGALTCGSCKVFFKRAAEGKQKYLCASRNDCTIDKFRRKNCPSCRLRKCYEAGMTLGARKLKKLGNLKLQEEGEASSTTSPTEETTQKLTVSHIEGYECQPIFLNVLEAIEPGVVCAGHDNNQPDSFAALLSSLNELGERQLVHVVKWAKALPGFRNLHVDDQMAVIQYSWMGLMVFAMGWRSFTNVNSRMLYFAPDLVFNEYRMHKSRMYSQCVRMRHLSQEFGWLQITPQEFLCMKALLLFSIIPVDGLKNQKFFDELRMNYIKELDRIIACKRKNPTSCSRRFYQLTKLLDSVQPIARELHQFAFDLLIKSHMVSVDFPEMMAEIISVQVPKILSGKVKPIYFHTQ

Row | Structure (SMILES) | PSA50 (≥50% decline in PSA from baseline), share of males ([1]; at 3 months) | PSA90 (≥90% decline in PSA from baseline), share of males ([1]; at 3 months) | PSA50 (≥50% decline in PSA from baseline), share of males ([1]; at 6 months) | PSA90 (≥90% decline in PSA from baseline), share of males ([1]; at 6 months) | tumor regression [2] | activity in T877A AR mutant [3]
1 | CNC(=O)c1ccc(N2C(=S)N(c3cnc(C#N)c(C(F)(F)F)c3)C(=O)C23CCC3)cc1F [4-[7-(6-cyano-5-trifluoromethylpyridin-3-yl)-8-oxo-6-thioxo-5,7-diazaspiro[3.4]oct-5-yl]-2-fluoro-N-methylbenzamide] | 91% | 38% | 91% | 55% | partial or complete tumor regression | –
2 | CC(C)(O)C(=O)Nc1ccc([N+](=O)[O-])c(C(F)(F)F)c1 [hydroxyflutamide] | – | – | – | – | – | act as AR agonists
